Patent publication US20250122504A1, “COMBINATIONS WITH MODULATORS OF PNPLA3 EXPRESSION” (AstraZeneca AB, priority 2021, published 2025)
{GalNAc3} = triantennary N-acetylgalactosamine conjugate

What was measured:
[1] = Body weight change in Pnpla3^148M/M knock-in mice fed a NASH-inducing diet; type: in vivo, mouse; conditions: Pnpla3^148M/M mice, NASH diet 36 weeks, treatment last 14 weeks; ASO 5 mg/kg/week s.c.; Cotadutide 1 nmol/kg daily s.c.; FIG. 1A
Protocol: All animal experiments were performed with humane care and were approved by the Gothenburg Ethics Committee for Experimental Animals in Sweden. The holding facility has received full accreditation from the Association for Assessment and Accreditation of Laboratory Animal Care (AAALAC). The human PNPLA3 […] mutation was introduced into the mouse Pnpla3 gene by replacing the isoleucine codon with a methionine codon in amino acid position 148 of the mouse Pnpla3 gene using homologous recombination as described before (Lindén et al Mol Metab, 2019, DOI: 10.1016/j.molmet.2019.01.013). Heterozygous Pnpla3^148I/M mice were intercrossed to generate experimental homozygous Pnpla3^148M/M knock-in mice for the pharmacology study. […]
Male Pnpla3^148M/M mice (6-8 weeks of age) were fed a diet high in fat (40 kcal % fat (non-trans fat Primex Shortening), fructose (20 kcal %) and cholesterol (2%) (NASH diet; D16022301, Research Diets, New Brunswick, NJ) for 22 weeks. The mice were then assigned to study groups based on body weight, and fed the same NASH diet and dosed with either 1) control ASO+saline, 2) Pnpla3 ASO+saline, 3) control ASO+Cotadutide, or 4) Pnpla3 ASO+Cotadutide for 14 weeks. […] Body weights were recorded during the study. […]

[2] = tested on: Pnpla3^148M/M mice fed a NASH-inducing diet; experiment: NAFLD activity score (NAS) and inflammation score from liver histology; type: in vivo, mouse; conditions: 14 weeks treatment, FIG. 4
Protocol: (§1) Male Pnpla3^148M/M mice (6-8 weeks of age) were fed a diet high in fat (40 kcal % fat (non-trans fat Primex Shortening), fructose (20 kcal %) and cholesterol (2%) (NASH diet; D16022301, Research Diets, New Brunswick, NJ) for 22 weeks. The mice were then assigned to study groups based on body weight, and fed the same NASH diet and dosed with either 1) control ASO+saline, 2) Pnpla3 ASO+saline, 3) control ASO+Cotadutide, or 4) Pnpla3 ASO+Cotadutide for 14 weeks. The ASOs were dosed at 5 mg/kg/week administered by two subcutaneous injections per week with saline as vehicle. Cotadutide was dosed at 1 nmol/kg administered by daily subcutaneous injections with saline as vehicle. […] Body weights were recorded during the study. […]
The NAFLD activity score (NAS) was determined according to the method reported by Kleiner et al (Kleiner et al Hepatology, 2005, DOI: 10.1002/hep.20701). […]
Differences between treatment groups were examined using 1-way ANOVA followed by Tukey's post-hoc tests (GraphPad Prism v.8.0.1., GraphPad Software, CA). Differences between treatment groups for the NAFLD activity score (NAS) derived from liver histology were analyzed by ordinal regression analyses followed by correction of family-wise error rate using the Šidák method. […]

[3] = tested on: Pnpla3^148M/M mice fed a NASH-inducing diet; experiment: Liver fibrosis as liver collagen 1A1 content (immunohistochemistry); type: in vivo, mouse; conditions: 14 weeks treatment, compared to control ASO, FIG. 5
Protocol: as §1
Four μm thick formaldehyde-fixed, paraffin-embedded mouse liver sections (one lover section per mouse) were routinely stained with hematoxylin-eosin (HE). […] Slides were scanned into Panoramic Scan II (3Dhistech, Hungary), and digital images were analyzed using the image analysis program Visiopharm (version 2020.03.0.7300, Visiopharm, Hørsholm, Denmark) by detecting stained area per total section area for Galectin-3 or Collagen 1A1.

mouse Pnpla3 mRNA = experiment: Liver Pnpla3 mRNA by qPCR in Pnpla3^148M/M mice on NASH diet; type: in vivo; conditions: 14 weeks treatment, ASO 5 mg/kg/week s.c., FIG. 1B
Protocol: Male Pnpla3^148M/M mice (6-8 weeks of age) were fed a diet high in fat (40 kcal % fat (non-trans fat Primex Shortening), fructose (20 kcal %) and cholesterol (2%) (NASH diet; D16022301, Research Diets, New Brunswick, NJ) for 22 weeks. The mice were then assigned to study groups based on body weight, and fed the same NASH diet and dosed with either 1) control ASO+saline, 2) Pnpla3 ASO+saline, 3) control ASO+Cotadutide, or 4) Pnpla3 ASO+Cotadutide for 14 weeks. The ASOs were dosed at 5 mg/kg/week administered by two subcutaneous injections per week with saline as vehicle. Cotadutide was dosed at 1 nmol/kg administered by daily subcutaneous injections with saline as vehicle. […] Body weights were recorded during the study. At sacrifice, unfasted mice were euthanized with isoflurane (Forene, Abbot Scandinavia AB, Sweden), blood was collected and plasma isolated, livers were collected, and pieces (same position in the left lateral lobe for all mice) were fixed with 4% formaldehyde in PBS for histology or snap-frozen in liquid N2 and stored at −80° C.
RNA was isolated from snap-frozen liver tissue using the RNeasy Mini Kit (Qiagen, Germany). The cDNA templates were generated by reverse transcription with a cDNA kit (ThermoFisher Scientific, Stockholm, Sweden) and used for real-time quantitative PCR with the QuantStudio 7 Flex instrument (Applied Biosystems, Stockholm, Sweden). […]

Row | Compound | body weight-gain during the treatment period compared to control ASO treated animals [1] | NAFLD activity score (NAS) compared to control ASO treated animals [2] | liver fibrosis measured as liver collagen 1A1 content [3] | reduction of liver Pnpla3 mRNA levels (mouse Pnpla3 mRNA) [%]
1 | CCCCCCCCCCCCCCCC(=O)N[C@@H](CCC(=O)NCCCC[C@H](NC(=O)[C@H](CC(=O)O)NC(=O)[C@H](CO)NC(=O)[C@@H](NC(=O)[C@H](Cc1ccccc1)NC(=O)[C@@H](NC(=O)CNC(=O)[C@H](CCC(N)=O)NC(=O)[C@H](CO)NC(=O)[C@@H](N)Cc1c[nH]cn1)[C@@H](C)O)[C@@H](C)O)C(=O)N[C@@H](CO)C(=O)N[C@@H](CCC(=O)O)C(=O)N[C@@H](Cc1ccc(O)cc1)C(=O)N[C@@H](CC(C)C)C(=O)N[C@@H](CC(=O)O)C(=O)N[C@@H](CO)C(=O)N[C@@H](CCC(=O)O)C(=O)N[C@@H](CCCNC(=N)N)C(=O)N[C@@H](C)C(=O)N[C@@H](CCCNC(=N)N)C(=O)N[C@@H](CC(=O)O)C(=O)N[C@@H](Cc1ccccc1)C(=O)N[C@H](C(=O)N[C@@H](C)C(=O)N[C@@H](Cc1c[nH]c2ccccc12)C(=O)N[C@@H](CC(C)C)C(=O)N[C@@H](CCC(=O)O)C(=O)N[C@@H](C)C(=O)NCC(=O)NCC(=O)O)C(C)C)C(=O)O [Cotadutide] | reduced body weight-gain | reduced the NAS | tended to reduce the liver collagen 1A1 content | 
2 | Pnpla3 ASO: mouse cEt-modified 16-mer ASO targeting mouse Pnpla3 gene (5′-TATTTTTGGTGTATCC-3′, SEQ ID NO: 37), 5′-conjugated with triantennary GalNAc3 (5' {GalNAc3}, sugars by position and backbone not given here; cEt-modified) | but not Pnpla3 ASO treatment reduced body weight-gain | reduced the NAS | tended to reduce liver fibrosis | ≥ 97
